ChEMBL document CHEMBL5316308, “BET-HDAC Dual Inhibitors for Combinational Treatment of Breast Cancer and Concurrent Candidiasis” (J Med Chem, 2023)
Values after ≈ are worked out from the molar mass of the structure shown. Active and inactive are the calls of the source. The calls are words filed in the database; no cut-off is given here.

Key:
[1] = molecular target: Histone deacetylase 2 (Homo sapiens, UniProt Q92769); assay: Inhibition of C-terminal GST-tagged full-length recombinant human HDAC2 expressed in baculovirus infected Sf9 insect cells using Ac-Leu-Gly-Lys(Ac)-AMC as substrate incubated for 30 mins by fluorescence based assay; type: cell-based
[2] = tested on: MDA-MB-231; assay: Antiproliferative activity against human MDA-MB-231 cells assessed as cell growth inhibition incubated for 24 hrs by CCK-8 assay; type: functional, cell-based; settings: MDA-MB-231, 24 h
[3] = tested on: Cryptococcus neoformans; assay: Antifungal activity against Cryptococcus neoformans H99 assessed as fungal growth inhibition measured after 48 hrs by CLSI based micro-dilution broth method; type: functional
[4] = tested on: Candida albicans; assay: Antifungal activity FLC-resistant Candida albicans 0304103 assessed as hyphal formation at 32 ug/ml incubated for 3 hrs by inverse fluorescent microscopy; type: functional, organism-based; settings: dose 32.0 µg/ml
[5] = molecular target: Bromodomain-containing protein 3 (Homo sapiens, UniProt Q15059); assay: Inhibition of recombinant BRD3 BD1 (unknown origin) incubated for 120 mins by TR-FRET assay
[6] = tested on: Candida albicans; assay: Synergistic antifungal activity against azole-resistant Candida albicans 0304103 assessed as fungal growth inhibition measured upto 24 hrs in presence of FLC by absorbance based assay; type: functional, organism-based; settings: dose 4-16 µg/ml
[7] = molecular target: Histone deacetylase 1 (Homo sapiens, UniProt Q13547); assay: Inhibition of full-length recombinant human HDAC1 (1 to 482 residues) expressed in baculovirus infected insect cells using Ac-Leu-Gly-Lys(Ac)-AMC as substrate incubated for 30 mins by fluorescence based assay; parameters: species or system Insect cell
[8] = tested on: Candida albicans; type: functional, 0304103; settings: time 48 hrs
Description: Synergistic antifungal activity against azole-resistant Candida albicans 0304103 assessed as fractional inhibitory concentration index measured after 48 hrs in presence of FLC by CLSI based micro-dilution broth method

[9] = tested on: Candida albicans; assay: Synergistic antifungal activity against Candida albicans 0304103 infected in ICR mouse assessed as decrease in kidney fungal load at 10 to 20 mg/kg, ip for 5 consecutive days; type: functional, organism-based; settings: dose 10-20 mg/kg, time 5.0 day
[10] = tested on: Candida albicans; assay: Synergistic antifungal activity against azole-resistant Candida albicans 0304103 assessed as fungal growth inhibition at 32 ug/ml measured upto 24 hrs in presence of 1 to 4 ug/ml FLC by absorbance based assay; type: functional, organism-based; settings: dose 32.0 µg/ml
[11] = molecular target: T1, Histone deacetylase 8 (Homo sapiens, UniProt Q9BY41); assay: Inhibition of C-terminal His-tagged full-length recombinant human HDAC8 expressed in baculovirus infected Sf9 insect cells using Ac-Leu-Gly-Lys(Tfa)-AMC as substrate incubated for 30 mins by fluorescence based assay
T1 sequence (Q9BY41 whole entry): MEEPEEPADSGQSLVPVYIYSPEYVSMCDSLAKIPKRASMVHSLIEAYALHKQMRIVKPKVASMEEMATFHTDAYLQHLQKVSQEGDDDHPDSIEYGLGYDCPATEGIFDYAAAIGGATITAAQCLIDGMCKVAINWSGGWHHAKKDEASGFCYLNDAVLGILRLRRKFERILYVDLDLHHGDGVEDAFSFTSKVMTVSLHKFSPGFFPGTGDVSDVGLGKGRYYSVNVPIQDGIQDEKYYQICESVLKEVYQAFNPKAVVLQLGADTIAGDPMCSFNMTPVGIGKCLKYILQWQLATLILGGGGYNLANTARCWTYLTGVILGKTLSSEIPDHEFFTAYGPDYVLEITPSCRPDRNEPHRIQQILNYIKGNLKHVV

Sequence of Histone deacetylase 1 (Q13547 whole entry, the tested form may be a part): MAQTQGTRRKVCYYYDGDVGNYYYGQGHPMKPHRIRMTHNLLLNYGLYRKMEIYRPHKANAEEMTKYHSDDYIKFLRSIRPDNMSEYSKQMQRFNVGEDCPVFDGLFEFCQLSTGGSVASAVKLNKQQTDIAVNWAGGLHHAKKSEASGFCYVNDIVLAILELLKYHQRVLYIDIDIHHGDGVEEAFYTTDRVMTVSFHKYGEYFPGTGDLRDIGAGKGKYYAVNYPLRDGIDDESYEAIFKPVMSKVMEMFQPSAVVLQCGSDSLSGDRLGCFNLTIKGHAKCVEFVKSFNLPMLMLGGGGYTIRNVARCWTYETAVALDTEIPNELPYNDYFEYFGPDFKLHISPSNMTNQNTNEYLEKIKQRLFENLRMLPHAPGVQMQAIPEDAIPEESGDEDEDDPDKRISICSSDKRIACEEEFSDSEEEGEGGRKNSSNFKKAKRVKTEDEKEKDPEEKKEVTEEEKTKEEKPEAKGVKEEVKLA
Sequence of Histone deacetylase 2 (Q92769 whole entry): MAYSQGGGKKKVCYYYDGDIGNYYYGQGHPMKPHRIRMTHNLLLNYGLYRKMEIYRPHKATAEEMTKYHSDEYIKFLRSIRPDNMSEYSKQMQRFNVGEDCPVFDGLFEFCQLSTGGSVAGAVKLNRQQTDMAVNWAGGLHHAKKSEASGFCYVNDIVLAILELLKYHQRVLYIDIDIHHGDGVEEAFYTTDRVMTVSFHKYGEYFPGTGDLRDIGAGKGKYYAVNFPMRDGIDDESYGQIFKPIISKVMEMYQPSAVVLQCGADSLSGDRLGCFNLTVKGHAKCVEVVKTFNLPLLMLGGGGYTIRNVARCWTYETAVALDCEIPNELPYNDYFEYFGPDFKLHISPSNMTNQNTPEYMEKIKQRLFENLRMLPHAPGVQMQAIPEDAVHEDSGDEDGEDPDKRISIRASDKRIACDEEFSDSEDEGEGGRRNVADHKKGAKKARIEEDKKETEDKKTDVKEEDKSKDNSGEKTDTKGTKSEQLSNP
Sequence of Bromodomain-containing protein 3 (Q15059 whole entry): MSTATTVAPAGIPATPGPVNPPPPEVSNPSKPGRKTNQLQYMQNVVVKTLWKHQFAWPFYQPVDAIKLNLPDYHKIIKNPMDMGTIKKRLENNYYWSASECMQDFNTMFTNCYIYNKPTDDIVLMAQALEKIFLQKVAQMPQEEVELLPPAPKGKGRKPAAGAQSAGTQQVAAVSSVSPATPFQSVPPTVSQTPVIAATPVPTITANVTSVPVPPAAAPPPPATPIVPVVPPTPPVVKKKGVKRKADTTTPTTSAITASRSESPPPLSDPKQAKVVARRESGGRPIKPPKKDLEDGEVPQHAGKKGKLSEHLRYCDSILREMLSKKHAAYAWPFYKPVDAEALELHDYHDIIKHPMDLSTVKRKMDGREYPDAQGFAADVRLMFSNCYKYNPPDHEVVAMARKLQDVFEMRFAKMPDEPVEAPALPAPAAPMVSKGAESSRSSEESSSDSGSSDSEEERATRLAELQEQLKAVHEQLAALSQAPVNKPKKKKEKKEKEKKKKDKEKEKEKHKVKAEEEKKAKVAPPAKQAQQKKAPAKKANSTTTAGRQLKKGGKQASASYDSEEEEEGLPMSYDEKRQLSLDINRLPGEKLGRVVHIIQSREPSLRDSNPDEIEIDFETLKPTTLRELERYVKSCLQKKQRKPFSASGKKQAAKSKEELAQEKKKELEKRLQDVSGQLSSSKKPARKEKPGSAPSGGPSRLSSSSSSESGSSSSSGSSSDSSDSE

## COc1cc2c(cc1-c1c(C)noc1C)[nH]c1ncnc(NCCCCCCC(=O)NO)c12
[1]
  IC50: 152 nM
[2]
  IC50: 500 nM
[3]
  MIC80: 8 µg/mL (≈ 17.7 µM)
[4]
  Activity: Active
[5]
  IC50: 113 nM
[6]
  Activity: Dose-Dependent Effect
[7]
  IC50: 10 nM
[8]
  fractional inhibitory concentration index (FICI): 0.07
[9]
  Activity: Active
[10]
  Activity: Active
[11]
  IC50: 784 nM

## COc1cc2c(cc1-c1c(C)noc1C)[nH]c1nc(C)nc(NCCCCCCC(=O)NO)c12
[1]
  IC50: 85 nM
[2]
  IC50: 1000 nM
[3]
  MIC80: 8 µg/mL (≈ 17.1 µM)
[4]
  Activity: Active
[5]
  IC50: 2590 nM
[6]
  Activity: Dose-Dependent Effect
[7]
  IC50: 19 nM
[8]
  fractional inhibitory concentration index (FICI): 0.25
[9]
  Activity: Active
[10]
  Activity: Active
[11]
  IC50: 782 nM
